# Columns and labels:
# Liver carboxylesterase 1 = target: T1, Liver carboxylesterase 1 (Homo sapiens, UniProt P23141); assay: Inhibitory concentration against Triacylglycerol hydrolase
# T1 sequence (P23141 whole entry): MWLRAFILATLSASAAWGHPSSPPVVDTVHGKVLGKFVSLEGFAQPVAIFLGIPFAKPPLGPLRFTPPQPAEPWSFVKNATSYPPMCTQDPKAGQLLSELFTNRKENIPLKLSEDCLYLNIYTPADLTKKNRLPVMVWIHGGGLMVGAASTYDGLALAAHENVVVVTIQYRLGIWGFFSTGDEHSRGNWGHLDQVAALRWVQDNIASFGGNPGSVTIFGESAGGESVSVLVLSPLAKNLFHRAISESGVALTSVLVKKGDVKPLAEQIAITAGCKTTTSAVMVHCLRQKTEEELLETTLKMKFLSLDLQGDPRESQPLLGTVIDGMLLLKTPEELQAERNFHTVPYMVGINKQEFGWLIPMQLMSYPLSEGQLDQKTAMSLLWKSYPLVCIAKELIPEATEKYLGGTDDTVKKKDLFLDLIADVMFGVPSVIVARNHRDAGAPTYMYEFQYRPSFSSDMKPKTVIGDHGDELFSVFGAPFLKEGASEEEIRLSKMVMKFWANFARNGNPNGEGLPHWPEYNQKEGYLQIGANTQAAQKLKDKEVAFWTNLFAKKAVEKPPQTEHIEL
# [1] = target: T2, Fatty-acid amide hydrolase 1 (Homo sapiens, UniProt O00519); assay: Inhibitory concentration against Fatty-acid amide hydrolase
# T2 sequence (O00519 whole entry): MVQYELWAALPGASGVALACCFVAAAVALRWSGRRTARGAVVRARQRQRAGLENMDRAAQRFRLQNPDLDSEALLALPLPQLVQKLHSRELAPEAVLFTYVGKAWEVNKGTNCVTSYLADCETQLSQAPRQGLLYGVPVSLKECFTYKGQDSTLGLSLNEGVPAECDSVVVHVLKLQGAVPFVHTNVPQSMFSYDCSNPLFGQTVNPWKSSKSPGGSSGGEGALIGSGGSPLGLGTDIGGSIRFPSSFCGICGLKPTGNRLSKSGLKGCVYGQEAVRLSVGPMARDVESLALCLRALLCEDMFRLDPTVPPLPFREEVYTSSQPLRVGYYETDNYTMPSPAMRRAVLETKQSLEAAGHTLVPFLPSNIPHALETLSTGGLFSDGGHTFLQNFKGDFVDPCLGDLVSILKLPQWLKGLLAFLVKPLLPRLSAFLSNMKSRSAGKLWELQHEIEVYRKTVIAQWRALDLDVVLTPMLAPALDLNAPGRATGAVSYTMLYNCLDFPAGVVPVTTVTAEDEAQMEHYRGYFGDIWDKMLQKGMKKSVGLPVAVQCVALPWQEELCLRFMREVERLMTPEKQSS
# [2] = Inhibitory concentration against KIAA1363 hydrolase
# [3] = target: T3, Fatty-acid amide hydrolase 1 (Rattus norvegicus, UniProt P97612); assay: Inhibitory constant determined against recombinant Fatty-acid amide hydrolase from rat expressed in Escherichia coli
# T3 sequence (P97612 whole entry): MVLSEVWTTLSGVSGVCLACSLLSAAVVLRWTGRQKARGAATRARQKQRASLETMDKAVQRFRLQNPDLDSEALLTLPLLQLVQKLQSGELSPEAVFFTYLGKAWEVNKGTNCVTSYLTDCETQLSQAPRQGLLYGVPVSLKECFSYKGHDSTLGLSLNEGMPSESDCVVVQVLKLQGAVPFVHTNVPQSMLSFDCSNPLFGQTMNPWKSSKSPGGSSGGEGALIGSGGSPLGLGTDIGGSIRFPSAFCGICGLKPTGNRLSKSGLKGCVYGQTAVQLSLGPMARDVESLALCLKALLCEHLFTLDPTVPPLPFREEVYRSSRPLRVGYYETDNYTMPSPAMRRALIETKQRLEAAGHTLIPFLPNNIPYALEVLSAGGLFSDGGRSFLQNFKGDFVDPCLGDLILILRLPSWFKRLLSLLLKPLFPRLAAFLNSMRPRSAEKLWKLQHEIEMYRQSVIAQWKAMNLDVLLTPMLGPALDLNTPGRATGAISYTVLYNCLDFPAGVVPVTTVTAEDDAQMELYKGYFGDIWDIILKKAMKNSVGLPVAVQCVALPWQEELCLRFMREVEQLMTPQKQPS
# [4] = target: T2, Fatty-acid amide hydrolase 1; assay: Inhibitory constant determined against recombinant Fatty-acid amide hydrolase from human expressed in COS-7 cells; type: cell-based
compound,measurement,setting,value
O=C(c1ccccc1)C(F)(F)F,IC50,Liver carboxylesterase 1,4 nM
same,IC50,[1],> 100000 nM
same,IC50,[2],10000 nM
O=C(CCCCCCc1ccccc1)c1nc2ncccc2o1,Ki,[3],0.28 nM
same,IC50,[2],20000 nM
CCCCCC(=O)c1ncc(-c2ccccn2)o1,Ki,[3],940 nM
CCCCCCCC/C=C\CCCCCCCC(=O)c1nc(-c2ccccc2)co1,Ki,[3],490 nM
CCCCCCCC/C=C\CCCCCCCC(=O)c1nc2ccccc2o1,Ki,[3],370 nM
same,IC50,[2],> 100000 nM
CCC(=O)c1ncc(-c2ccccn2)o1,Ki,[3],48000 nM
O=C(CCCC#Cc1ccccc1)c1ncc(-c2ccccn2)o1,Ki,[3],21 nM
CCCCCCCC/C=C\CCCCCCCC(=O)c1ncc(-c2cccnc2)o1,Ki,[3],61 nM
CCCCCCCCCCCCCCCCCC(=O)c1ncc(-c2ccccn2)o1,Ki,[3],59 nM
CCCCCCCC(=O)c1ncc(-c2ccccn2)o1,Ki,[3],49 nM
CCCCCCCCC(=O)c1ncc(-c2ccccn2)o1,Ki,[3],15 nM
O=C(CCCCCCCc1ccccc1)C(F)(F)F,IC50,[2],200 nM
CCCCCCCC(=O)C(F)(F)F,IC50,[2],1500 nM
CCCCCCCC/C=C\CCCCCCCC(=O)c1nc(-c2ncccn2)co1,Ki,[3],16 nM
CCCCCCCCCCCCCCCC(=O)c1ncc(-c2ccccn2)o1,Ki,[3],21 nM
c1ccc(CCCCCCCc2ncc(-c3ccccn3)o2)cc1,Ki,[3],20000 nM
OC(CCCCCCc1ccccc1)c1ncc(-c2ncccn2)o1 (centres undefined),Ki,[3],5900 nM
CCCCCCCC/C=C\CCCCCCCC(=O)c1ncco1,Ki,[4],45 nM
same,IC50,[2],> 100000 nM
O=C(CCCCCc1ccccc1)c1nc2ncccc2o1,Ki,[3],0.2 nM
same,IC50,[2],10000 nM
CCCCCCCC/C=C\CCCCCCCC(=O)c1nc(-c2ccccn2)co1,Ki,[3],31 nM
CC(=O)c1ncc(-c2ccccn2)o1,Ki,[3],> 100000 nM
CCCCCCCC/C=C\CCCCCCCC(=O)c1ncc(-c2ncco2)o1,Ki,[3],12 nM
O=C(CCCCCCc1ccccc1)c1ncc(-c2cnccn2)o1,Ki,[3],5.3 nM
CCCCCCCC/C=C\CCCCCCCC(=O)c1ncc(-c2ccccn2)o1,IC50,Liver carboxylesterase 1,> 100000 nM
same,Ki,[4],10 nM
same,IC50,[1],150 nM
same,IC50,[2],> 100000 nM
O=C(CCCCCc1ccccc1)c1nc2ccccc2o1,IC50,[2],> 100000 nM
CCCCCCC(=O)c1ncc(-c2ccccn2)o1,Ki,[3],170 nM
CCCC(=O)c1ncc(-c2ccccn2)o1,Ki,[3],11000 nM
CCCCCCCC/C=C\CCCCCCCC(=O)c1ncc(-c2ccncc2)o1,Ki,[3],56 nM
O=C(CCCCCc1ccccc1)C(F)(F)F,IC50,[2],800 nM
C[Si](C)(C)C#CCCCCC(=O)c1ncc(-c2ccccn2)o1,Ki,[3],200 nM
CCCCCCCC/C=C\CCCCCCCC(=O)c1ncc(-c2nccn2C)o1,Ki,[3],47 nM
OC(CCCCCCc1ccccc1)c1ncc(-c2ccccn2)o1 (centres undefined),Ki,[3],3300 nM
O=C(CCCCC#Cc1ccccc1)c1ncc(-c2ccccn2)o1,Ki,[3],20 nM
O=C(CCCCCCCc1ccccc1)c1ncc(-c2ccccn2)o1,Ki,[3],7.5 nM
CCCCCCCCCC(=O)c1ncc(-c2ccccn2)o1,Ki,[3],9 nM
C#CCCCCC(=O)c1ncc(-c2ccccn2)o1,Ki,[3],1300 nM
CCCCCCCC/C=C\CCCCCCCC(=O)c1nc(-c2ccccc2)c(-c2ccccc2)o1,Ki,[3],> 100000 nM
O=C(CCCCCCCCCc1ccccc1)c1ncc(-c2ccccn2)o1,Ki,[3],10 nM
CCCCCCCC/C=C\CCCCCCCC(=O)c1ncc(-c2cnccn2)o1,Ki,[3],18 nM
CCCCCCCC/C=C\CCCCCCCC(=O)c1ncc(-c2cccs2)o1,Ki,[3],890 nM
O=C(Cc1ccccc1)C(F)(F)F,IC50,Liver carboxylesterase 1,10 nM
same,IC50,[1],> 100000 nM
same,IC50,[2],10000 nM
O=C(CCCCCCc1ccccc1)c1ncc(-c2cncnc2)o1,Ki,[3],22 nM
O=C(CCCCCCc1ccccc1)c1ncc(-c2ncccn2)o1,Ki,[3],4.6 nM
CCCCC(=O)c1ncc(-c2ccccn2)o1,Ki,[3],3000 nM
CCCCCCCC/C=C\CCCCCCCC(=O)c1ncc(-c2ccsc2)o1,Ki,[3],13200 nM
CCCCCCCC/C=C\CCCCCCCC(=O)c1ncc(-c2ccccc2)o1,Ki,[3],320 nM
O=C(CCCCCCc1ccccc1)c1ncc(-c2ccccn2)o1,IC50,[2],> 100000 nM
CCCCCCCC/C=C\CCCCCCCC(=O)c1nc(-c2cccnc2)co1,Ki,[3],41 nM
CCCCCCCCCCCCCC(=O)c1ncc(-c2ccccn2)o1,Ki,[3],13 nM
CCCCCCCCCCC(=O)c1ncc(-c2ccccn2)o1,Ki,[3],3.3 nM
CCCCCCCCC#CCCCCCCCC(=O)c1nc2ncccc2o1,Ki,[3],0.14 nM
same,IC50,Liver carboxylesterase 1,500 nM
same,IC50,[1],2 nM
same,IC50,[2],20000 nM
OC(CCCCCCc1ccccc1)c1ncc(-c2cccnn2)o1 (centres undefined),Ki,[3],4300 nM
CCCCCCCC/C=C\CCCCCCCC(=O)c1ncc(-c2cccn2C)o1,Ki,[3],8600 nM
CCCCCCCC/C=C\CCCCCCCC(=O)c1nc(-c2ccncc2)co1,Ki,[3],78 nM
CCCCCCCCCCCC(=O)C(F)(F)F,IC50,Liver carboxylesterase 1,60 nM
same,IC50,[2],500 nM
O=C(CCCCCCc1ccccc1)C(F)(F)F,IC50,[2],200 nM
O=C(CCCCCCCCCCc1ccccc1)c1ncc(-c2ccccn2)o1,Ki,[3],22 nM
O=C(CCCCCCCCc1ccccc1)c1ncc(-c2ccccn2)o1,Ki,[3],7.8 nM
O=C(CCCCCCc1ccccc1)c1ncc(-c2ncco2)o1,Ki,[3],4.6 nM
O=C(CCCCCCc1ccccc1)c1ncc(-c2cccnn2)o1,Ki,[3],5.6 nM
CCCCCCCCCCCCCCCCCC(=O)C(F)(F)F,IC50,[2],6600 nM
CCCCCCCC/C=C\CCCCCCCC(=O)c1nc2ncccc2o1,Ki,[3],2.3 nM
same,IC50,[2],60000 nM
CCCCCCCC/C=C\CCCCCCCC(=O)c1nc(-c2ccncn2)co1,Ki,[3],16 nM
O=C(CCCCCc1ccccc1)c1ncc(-c2ccccn2)o1,Ki,[3],11 nM
CCCCCCCC/C=C\CCCCCCCC(=O)c1ncc(-c2nccs2)o1,Ki,[3],16 nM
CCCCCCCC/C=C\CCCCCCCC(=O)c1ncc(-c2cccnn2)o1,Ki,[3],14 nM
O=C(CCCCCCc1ccccc1)c1ncc(-c2nccs2)o1,Ki,[3],5.8 nM
CCCCCCCC/C=C\CCCCCCCCc1ncc(-c2ccccn2)o1,Ki,[3],23200 nM
O=C(CCCCc1ccccc1)c1ncc(-c2ccccn2)o1,Ki,[3],33 nM
CCCCCCCCCCCC(=O)c1ncc(-c2ccccn2)o1,Ki,[3],2.2 nM
CCCCCCCC/C=C\CCCCCCCC(=O)C(F)(F)F,Ki,[3],80 nM
same,IC50,Liver carboxylesterase 1,4800 nM
same,IC50,[1],4500 nM
same,IC50,[2],1100 nM
O=C(CCCCCCc1ccccc1)c1ncc(-c2ccncn2)o1,Ki,[3],2.3 nM
CCCCCCCCC#CCCCCCCCC(=O)c1ncc(-c2ccccn2)o1,Ki,[3],10 nM
same,IC50,Liver carboxylesterase 1,30000 nM
same,IC50,[1],20 nM
same,IC50,[2],> 100000 nM
CCCCCCCC/C=C\CCCCCCCC(=O)c1ncc(-c2ccoc2)o1,Ki,[3],610 nM
O=C(Cc1ccccc1)c1ncc(-c2ccccn2)o1,Ki,[3],17000 nM
CCCCCCCCCC(=O)C(F)(F)F,IC50,[2],400 nM
O=C(CCCc1ccccc1)c1ncc(-c2ccccn2)o1,Ki,[3],120 nM
C#CCCCCCCCC(=O)c1ncc(-c2ccccn2)o1,Ki,[3],23 nM
CCCCCCCC/C=C\CCCCCCCC(=O)c1nc(C)c(C)o1,Ki,[3],3800 nM
CCCCCCCC/C=C\CCCCCCCC(O)c1ncc(-c2ccccn2)o1 (centres undefined),Ki,[3],10600 nM
C=CCCCCCCCC(=O)c1ncc(-c2ccccn2)o1,Ki,[3],11 nM
O=C(CCc1ccccc1)c1ncc(-c2ccccn2)o1,Ki,[3],200 nM
